Patent US8729269B2, “Substituted piperidino phenyloxazolidinones having antimicrobial activity with improved in vivo efficacy” (Wockhardt Limited, priority 2003, dated 2014)
≈ marks a conversion by molar mass, not a printed value.

Assays:
[1] = system: methicillin resistant Staphylococcus aureus strain MRSA 32; assay: Murine Assay Procedure (in vivo efficacy, MRSA 32 infection); settings: swiss mice infected intraperitoneally with MRSA 32, oral gavage 1 h after infection, repeat dose 3 hrs later, percentage survival on Day 7
Experimental: Oxazolidinone new chemical entities (NCEs) were evaluated for their in vivo efficacy in a murine infection caused by multi-drug resistant, methicillin resistant Staphylococcus aureus strain, referred to as MRSA 32, a clinical isolate obtained from a hospitalized patient. The procedure used for the murine assay is as follows:
Four weeks old swiss mice of 18-22 gm body weight were infected with MRSA 32 strain suspended in 5% Hog gastric mucin. The infecting dose of bacteria was set at 1-2×10^8 CFU/animal. The infecting dose was administered in 0.5 ml volume injected into peritonial cavity of mice. The treatment with oxazolidinone NCEs was started one hour after infection by administering 100-200 μl of the suspensions of oxazolidinone compounds in 5% Tween 80 by oral gavage. A repeat dose was similarly administered 3 hrs later. Each oxazolidinone NCE was tested at 2-3 different dosages in the range of 2.5 mg/kg to 20 mg/kg. In each dose group 6 mice were included. As an infection control group 12 mice were infected with MRSA 32 strain without giving any treatment. For compounds affording protection of MRSA infected mice, ED50 dosages were calculated on the basis of percentage survival on Day 7 after infection.

[2] = system: Vancomycin resistant enterococci 303 (VRE 303); assay: Minimum Inhibitory Concentration (MIC) determination, agar dilution; type: cell-based; settings: Enterococcus, Mueller Hinton agar, 24 hrs at 35° C.
Experimental: (§1) Overnight grown cultures of Methicilin resistant Staphylococcus aureus 32 (MRSA 32), Methicilin resistant Staphylococcus epidermidis 118 (MRSE 118), Vancomycin resistant enterococci 303 (VRE 303) in Tryptic Soya broth were diluted in Mueller Hinton Broth to give optical density matching with MacFarland tube 0.5 standard. Cultures were further diluted 1:10 in Mueller Hinton broth. Using Denley's multipoint inoculator, 10^4 cells were deposited on Mueller Hinton agar (Difco) containing range of 2 fold dilutions of test compounds. These plates were incubated for 24 hrs at 35° C. and MIC results recorded. MIC is defined as minimum drug concentration that inhibits test organisms. For determining MIC of test compounds against Streptococcus pneumoniae 49619 (SPN 49619) and Streptococcus pyogenes 801 (SPY 801), Mueller Hinton agar containing 5% sheep blood was employed.

[3] = system: Methicilin resistant Staphylococcus epidermidis 118 (MRSE 118); assay: as above; type: cell-based; settings: Mueller Hinton agar, 24 hrs at 35° C.
Experimental: as §1

[4] = system: Methicilin resistant Staphylococcus aureus 32 (MRSA 32); assay: as above; type: cell-based; settings: Mueller Hinton agar, 24 hrs at 35° C.
Experimental: as §1

[5] = system: Streptococcus pyogenes 801 (SPY 801); assay: Minimum Inhibitory Concentration (MIC) determination, agar with 5% sheep blood; type: cell-based; settings: Mueller Hinton agar containing 5% sheep blood
Experimental: as §1

[6] = system: Streptococcus pneumoniae 49619 (SPN 49619); assay: as above; type: cell-based; settings: Mueller Hinton agar containing 5% sheep blood
Experimental: as §1

| MIC [2] | MIC [3] | MIC [4] | MIC [5] | MIC [6] | SMILES | ED50 [1] |
| --- | --- | --- | --- | --- | --- | --- |
| 8 µg/mL | 2 µg/mL | 4 µg/mL | 4 µg/mL | 4 µg/mL | CC(=O)NC[C@H]1CN(c2ccc(N3CCC4(CC3)CC4C#N)cc2)C(=O)O1 (mixture of isomers) [Example 96, (1RS,5S)—N-{3-[4-(1-cyano-6-aza-spiro[2.5]oct-6-yl)-phenyl]-2-oxo-oxazolidin-5-ylmethyl}-acetamide] | 5 mg/kg |
| 2 µg/mL | 1 µg/mL | 4 µg/mL | 2 µg/mL | 2 µg/mL | CC(=O)NC[C@H]1CN(c2ccc(N3CCC4(CC3)CC4C#N)c(F)c2)C(=O)O1 (mixture of isomers) [Example 97, (1RS,5S)—N-{3-[4-(1-cyano-6-aza-spiro[2.5]oct-6-yl)-3-fluorophenyl]-2-oxo-oxazolidin-5-ylmethyl}-acetamide] | 5 mg/kg |
| > 16 µg/mL | 8 µg/mL (≈ 18.1 µM) | 8 µg/mL (≈ 18.1 µM) | > 8 µg/mL | > 8 µg/mL | CS(=O)(=O)NCC1CN(c2ccc(N3CCC(O)(CN=[N+]=[N-])CC3)c(F)c2)C(=O)O1 (stereo in doubt) [Example 40, (S)—N-{3-[4-(4-Azidomethyl-4-hydroxypiperidin-1-yl)-3-fluorophenyl]-2-oxo-oxazolidin-5-ylmethyl}-methanesulfonamide] | 10 mg/kg |
| 4 µg/mL (≈ 10.9 µM) | 2 µg/mL (≈ 5.44 µM) | 4 µg/mL (≈ 10.9 µM) | 2 µg/mL (≈ 5.44 µM) | 2 µg/mL (≈ 5.44 µM) | CC(=O)NC[C@H]1CN(c2ccc(N3CCC(C)(F)CC3)c(F)c2)C(=O)O1 [Example 1, (S)—N-{3-[4-(4-Fluoro-4-methylpiperidin-1-yl)-3-fluorophenyl]-2-oxo-oxazolidin-5-ylmethyl}-acetamide] | 10 mg/kg |
| 1 µg/mL (≈ 2.55 µM) | 0.5 µg/mL (≈ 1.27 µM) | 1 µg/mL (≈ 2.55 µM) | 1 µg/mL (≈ 2.55 µM) | 0.5 µg/mL (≈ 1.27 µM) | CC(=O)NC[C@H]1CN(c2ccc(N3CCC(F)(CC#N)CC3)c(F)c2)C(=O)O1 [Example 2, (S)—N-{3-[4-(4-Fluoro-4-cyanomethylpiperidin-1-yl)-3-fluorophenyl]-2-oxo-oxazolidin-5-ylmethyl}-acetamide] | 2.5 mg/kg |
| 2 µg/mL (≈ 4.9 µM) | 1 µg/mL (≈ 2.45 µM) | 2 µg/mL (≈ 4.9 µM) | 2 µg/mL (≈ 4.9 µM) | 2 µg/mL (≈ 4.9 µM) | CC(=O)NC[C@H]1CN(c2ccc(N3CCC(F)(CN=[N+]=[N-])CC3)c(F)c2)C(=O)O1 [Example 4, (S)—N-{3-[4-(4-Fluoro-4-azidomethylpiperidin-1-yl)-3-fluorophenyl]-2-oxo-oxazolidin-5-ylmethyl}-acetamide] | 10 mg/kg |
| 8 µg/mL (≈ 18.8 µM) | 2 µg/mL (≈ 4.71 µM) | 8 µg/mL (≈ 18.8 µM) | 2 µg/mL (≈ 4.71 µM) | 2 µg/mL (≈ 4.71 µM) | CC(=O)NC[C@H]1CN(c2ccc(N3CCC(F)(CNC(C)=O)CC3)c(F)c2)C(=O)O1 [Example 6, (S)—N-{3-[4-(4-Fluoro-4-(N-acetylamino)-methylpiperidin-1-yl)-3-fluorophenyl]-2-oxo-oxazolidin-5-ylmethyl}-acetamide] | 10 mg/kg |
| 2 µg/mL (≈ 4.34 µM) | 0.5 µg/mL (≈ 1.09 µM) | 1 µg/mL (≈ 2.17 µM) | 1 µg/mL (≈ 2.17 µM) | 1 µg/mL (≈ 2.17 µM) | CC(=O)NC[C@H]1CN(c2ccc(N3CCC(F)(CNS(C)(=O)=O)CC3)c(F)c2)C(=O)O1 [Example 7, (S)—N-{3-[4-(4-Fluoro-4-methanesulfonamidomethylpiperidin-1-yl)-3-fluorophenyl]-2-oxo-oxazolidin-5-ylmethyl}-acetamide] | 5 mg/kg |
| 4 µg/mL (≈ 10.4 µM) | 0.5 µg/mL (≈ 1.3 µM) | 2 µg/mL (≈ 5.22 µM) | 2 µg/mL (≈ 5.22 µM) | 2 µg/mL (≈ 5.22 µM) | CC(=O)NC[C@H]1CN(c2ccc(N3CCC(F)(CO)CC3)c(F)c2)C(=O)O1 [Example 9, (S)—N-{3-[4-(4-Fluoro-4-hydroxymethylpiperidin-1-yl)-3-fluorophenyl]-2-oxo-oxazolidin-5-ylmethyl}-acetamide] | 5 mg/kg |
| 1 µg/mL (≈ 2.52 µM) | 1 µg/mL (≈ 2.52 µM) | 2 µg/mL (≈ 5.03 µM) | 2 µg/mL (≈ 5.03 µM) | 2 µg/mL (≈ 5.03 µM) | COCC1(F)CCN(c2ccc(N3C[C@H](CNC(C)=O)OC3=O)cc2F)CC1 [Example 10, (S)—N-{3-[4-(4-Fluoro-4-methoxymethylpiperidin-1-yl)-3-fluorophenyl]-2-oxo-oxazolidin-5-ylmethyl}-acetamide] | 5 mg/kg |
| 4 µg/mL (≈ 9.72 µM) | 0.5 µg/mL (≈ 1.22 µM) | 1 µg/mL (≈ 2.43 µM) | 4 µg/mL (≈ 9.72 µM) | 2 µg/mL (≈ 4.86 µM) | CCOCC1(F)CCN(c2ccc(N3C[C@H](CNC(C)=O)OC3=O)cc2F)CC1 [Example 11, (S)—N-{3-[4-(4-Fluoro-4-ethoxymethylpiperidin-1-yl)-3-fluorophenyl]-2-oxo-oxazolidin-5-ylmethyl}-acetamide] | 10 mg/kg |
| 2 µg/mL (≈ 4.33 µM) | 0.5 µg/mL (≈ 1.08 µM) | 1 µg/mL (≈ 2.17 µM) | 0.25 µg/mL (≈ 0.542 µM) | 0.25 µg/mL (≈ 0.542 µM) | CC(=O)NC[C@H]1CN(c2ccc(N3CCC(F)(COS(C)(=O)=O)CC3)c(F)c2)C(=O)O1 [Example 12, (S)—N-{3-[4-(4-Fluoro-4-methanesulfonyloxymethylpiperidin-1-yl)-3-fluorophenyl]-2-oxo-oxazolidin-5-ylmethyl}-acetamide] | 2.5 mg/kg |
| 2 µg/mL (≈ 4.05 µM) | 1 µg/mL (≈ 2.03 µM) | 1 µg/mL (≈ 2.03 µM) | 1 µg/mL (≈ 2.03 µM) | 1 µg/mL (≈ 2.03 µM) | CC(=O)NC[C@H]1CN(c2ccc(N3CCC(F)(CI)CC3)c(F)c2)C(=O)O1 [Example 15, (S)—N-{3-[4-(4-Fluoro-4-iodomethylpiperidin-1-yl)-3-fluorophenyl]-2-oxo-oxazolidin-5-ylmethyl}-acetamide] | 10 mg/kg |
| 2 µg/mL (≈ 5.39 µM) | 1 µg/mL (≈ 2.69 µM) | 2 µg/mL (≈ 5.39 µM) | 2 µg/mL (≈ 5.39 µM) | 2 µg/mL (≈ 5.39 µM) | CC(=O)NC[C@H]1CN(c2ccc(N3CCC(F)(F)CC3)c(F)c2)C(=O)O1 [Example 16, (S)—N-{3-[4-(4,4-Difluoropiperidin-1-yl)-3-fluorophenyl]-2-oxo-oxazolidin-5-ylmethyl}-acetamide] | 5 mg/kg |
| > 32 µg/mL | > 32 µg/mL | 8 µg/mL (≈ 21.9 µM) | > 16 µg/mL | > 16 µg/mL | CC(=O)NC[C@H]1CN(c2ccc(N3CCC(C)(O)CC3)c(F)c2)C(=O)O1 [Example 17, (S)—N-{3-[4-(4-Methyl-4-hydroxypiperidin-1-yl)-3-fluorophenyl]-2-oxo-oxazolidin-5-ylmethyl}-acetamide] | 10 mg/kg |
| 4 µg/mL (≈ 10.6 µM) | 0.5 µg/mL (≈ 1.33 µM) | 4 µg/mL (≈ 10.6 µM) | 8 µg/mL (≈ 21.3 µM) | 4 µg/mL (≈ 10.6 µM) | CC(=O)NC[C@H]1CN(c2ccc(N3CCC(O)(C#N)CC3)c(F)c2)C(=O)O1 [Example 19, (S)—N-{3-[4-(4-Cyano-4-hydroxypiperidin-1-yl)-3-fluorophenyl]-2-oxo-oxazolidin-5-ylmethyl}-acetamide] | 5 mg/kg |
|  |  | 8 µg/mL (≈ 18.2 µM) | 4 µg/mL (≈ 9.1 µM) | 4 µg/mL (≈ 9.1 µM) | CC(=O)NC[C@H]1CN(c2ccc(N3CCC4(CC3)C[S+]([O-])CCO4)c(F)c2)C(=O)O1 (stereo partly drawn) [Example 162, (S)—N-{3-[4-(1-oxa-4-sulfinyl-9-aza-spiro[5.5]undec-9-yl)-3-fluorophenyl]-2-oxo-oxazolidin-5-ylmethyl}-acetamide] | 10 mg/kg |
| 8 µg/mL (≈ 21.2 µM) | 4 µg/mL (≈ 10.6 µM) | 8 µg/mL (≈ 21.2 µM) |  |  | COCC1(O)CCN(c2ccc(N3C[C@H](CNC(C)=O)OC3=O)cc2)CC1 [Example 177, (S)—N-{3-[4-(4-methoxymethyl-4-hydroxy-piperidin-1-yl)-phenyl]-2-oxo-oxazolidin-5-ylmethyl}-acetamide] | 10 mg/kg |
